T1: aromatase (Homo sapiens, UniProt P11511)
T1 construct: gene CYP19A1; human placental aromatase cDNA (nucleotides 16-1539) stably expressed in MCF-7 cells (clone Arom. 1)
T1 sequence (P11511 1-503): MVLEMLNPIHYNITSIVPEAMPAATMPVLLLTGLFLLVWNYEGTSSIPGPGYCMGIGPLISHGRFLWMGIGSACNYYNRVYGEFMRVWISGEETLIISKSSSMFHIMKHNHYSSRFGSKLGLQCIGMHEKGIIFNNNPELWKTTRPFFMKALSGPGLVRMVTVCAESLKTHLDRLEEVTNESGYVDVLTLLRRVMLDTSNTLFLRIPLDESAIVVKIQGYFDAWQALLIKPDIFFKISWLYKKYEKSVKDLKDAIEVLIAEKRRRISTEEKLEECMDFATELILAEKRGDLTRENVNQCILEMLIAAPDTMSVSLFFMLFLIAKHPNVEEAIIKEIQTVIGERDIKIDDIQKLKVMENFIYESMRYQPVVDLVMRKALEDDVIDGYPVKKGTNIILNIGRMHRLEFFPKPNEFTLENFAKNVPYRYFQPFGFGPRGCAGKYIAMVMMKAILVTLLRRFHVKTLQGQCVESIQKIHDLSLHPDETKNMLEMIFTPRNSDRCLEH


Key:
aromatase = target: T1, aromatase; assay: cell-based
[1] = substrate: C[C@]12CCC(=O)C=C1CC[C@@H]1[C@@H]2CC[C@]2(C)C(=O)CC[C@@H]12; assay: cells, lysate or membranes

Molecule	IC50 (aromatase) [nM]	Km [1] [µM]
C[C@]12CCC(=O)C(O)=C1CC[C@@H]1[C@@H]2CC[C@]2(C)C(=O)CC[C@@H]12 [4-hydroxyandrostenedione]	70	–
aromatase (Homo sapiens) (protein) MVLEMLNPIHYNITSIVPEAMPAATMPVLLLTGLFLLVWNYEGTSSIPGPGYCMGIGPLISHGRFLWMGIGSACNYYNRVYGEFMRVWISGEETLIISKSSSMFHIMKHNHYSSRFGSKLGLQCIGMHEKGIIFNNNPELWKTTRPFFMKALSGPGLVRMVTVCAESLKTHLDRLEEVTNESGYVDVLTLLRRVMLDTSNTLFLRIPLDESAIVVKIQGYFDAWQALLIKPDIFFKISWLYKKYEKSVKDLKDAIEVLIAEKRRRISTEEKLEECMDFATELILAEKRGDLTRENVNQCILEMLIAAPDTMSVSLFFMLFLIAKHPNVEEAIIKEIQTVIGERDIKIDDIQKLKVMENFIYESMRYQPVVDLVMRKALEDDVIDGYPVKKGTNIILNIGRMHRLEFFPKPNEFTLENFAKNVPYRYFQPFGFGPRGCAGKYIAMVMMKAILVTLLRRFHVKTLQGQCVESIQKIHDLSLHPDETKNMLEMIFTPRNSDRCLEH	–	0.07
